Values quoted from earlier work, collected in patent US5093372A, “Novel pharmaceutical composition comprising exifone and water-soluble polymer” (Fujisawa Pharmaceutical Co. Inc., priority 1987, dated 1992).

What was measured:
[1] = orally administered as a conventional pharmaceutical composition

## O=C(c1cc(O)c(O)c(O)c1)c1ccc(O)c(O)c1O [exifone]
other
  solubility in water (in words): sparingly soluble in water
about
  saturated solubility in water: 70 to 80 µg/mL
[1]
  absorption into blood circulation (in words): poor
  bioavailability (in words): low
